From ChEMBL document CHEMBL1938278, “Protective effect of ginseng sapogenins against 2,2'-azobis (1-aminopropane) dihydrochloride (AAPH)-induced LLC-PK₁ cell damage” (2012)

Assays:
Format in all cases: functional
Conditions in all cases: Sus scrofa, LLC-PK1, 24 h; read-out: Activity
LLC-PK1 [1] = assay: Renoprotective activity against AAPH-induced oxidative damage in pig LLC-PK1 cells assessed as cell viability at 1 ug/ml after 24 hrs by MTT assay relative to control
LLC-PK1 [2] = assay: Renoprotective activity against AAPH-induced oxidative damage in pig LLC-PK1 cells assessed as cell viability at 5 ug/ml after 24 hrs by MTT assay relative to control
LLC-PK1 [3] = assay: Renoprotective activity against AAPH-induced oxidative damage in pig LLC-PK1 cells assessed as cell viability at 10 ug/ml after 24 hrs by MTT assay relative to control

SMILES: C=C(CCC=C(C)C)[C@H]1CC[C@]2(C)[C@@H]1[C@H](O)C[C@@H]1[C@@]3(C)CC[C@H](O)C(C)(C)[C@@H]3CC[C@]12C
- viability at 1 µg/mL (LLC-PK1 [1]): 61.8%
- viability at 5 µg/mL (LLC-PK1 [2]): 69.9%
- viability at 10 µg/mL (LLC-PK1 [3]): 85.5%

SMILES: C=C(CCC=C(C)C)[C@H]1CC[C@]2(C)[C@@H]1[C@H](O)C[C@@H]1[C@@]3(C)CC[C@H](O)C(C)(C)[C@@H]3[C@@H](O)C[C@]12C
- viability at 1 µg/mL (LLC-PK1 [1]): 76.9%
- viability at 5 µg/mL (LLC-PK1 [2]): 94.4%
- viability at 10 µg/mL (LLC-PK1 [3]): 101%

SMILES: CC(C)=CC/C=C(\C)[C@H]1CC[C@]2(C)[C@@H]1[C@H](O)C[C@@H]1[C@@]3(C)CC[C@H](O)C(C)(C)[C@@H]3CC[C@]12C
- viability at 1 µg/mL (LLC-PK1 [1]): 60.7%
- viability at 5 µg/mL (LLC-PK1 [2]): 63.7%
- viability at 10 µg/mL (LLC-PK1 [3]): 64.6%

SMILES: CC(C)=CC/C=C(\C)[C@H]1CC[C@]2(C)[C@@H]1[C@H](O)C[C@@H]1[C@@]3(C)CC[C@H](O)C(C)(C)[C@@H]3[C@@H](O)C[C@]12C
- viability at 1 µg/mL (LLC-PK1 [1]): 61.5%
- viability at 5 µg/mL (LLC-PK1 [2]): 63.3%
- viability at 10 µg/mL (LLC-PK1 [3]): 63.3%

SMILES: CC(C)=CCC[C@](C)(O)[C@H]1CC[C@]2(C)[C@@H]1[C@H](O)C[C@@H]1[C@@]3(C)CC[C@H](O)C(C)(C)[C@@H]3[C@@H](O)C[C@]12C
- viability at 1 µg/mL (LLC-PK1 [1]): 61.1%
- viability at 5 µg/mL (LLC-PK1 [2]): 73.3%
- viability at 10 µg/mL (LLC-PK1 [3]): 85.7%

SMILES: CC(C)=CCC[C@](C)(O)[C@H]1CC[C@]2(C)[C@@H]1[C@H](O)C[C@@H]1[C@@]3(C)CC[C@H](O)C(C)(C)[C@@H]3CC[C@]12C
- viability at 1 µg/mL (LLC-PK1 [1]): 62.2%
- viability at 5 µg/mL (LLC-PK1 [2]): 72.6%
- viability at 10 µg/mL (LLC-PK1 [3]): 62.6%
